Data set [1] concerns Oryctolagus cuniculus. Description: Antihyperlipidemic activity in high fat-high cholesterol fed New Zealand Oryctolagus cuniculus (rabbit) assessed as low-density lipoprotein-cholesterol level in blood at 15 mg/kg, po for 40 days (reference value: 3.47 +/- 0.44 mmol/l). In kind it is functional.
Data set [2] has as its system Oryctolagus cuniculus. In words: Antihyperlipidemic activity in high fat-high cholesterol fed New Zealand Oryctolagus cuniculus (rabbit) assessed as low-density lipoprotein-cholesterol level in blood at 10 mg/kg, po for 40 days (reference value: 3.47 +/- 0.44 mmol/l). In kind it is functional.
Data set [3] concerns Oryctolagus cuniculus. In words: Antihyperlipidemic activity in high fat-high cholesterol fed New Zealand Oryctolagus cuniculus (rabbit) assessed as triglyceride level in blood at 10 mg/kg, po for 40 days (reference value: 2.07 +/- 0.33 mmol/l). In kind it is functional.
Data set [4] has as its system Oryctolagus cuniculus. Description: Antihyperlipidemic activity in high fat-high cholesterol fed New Zealand Oryctolagus cuniculus (rabbit) assessed as triglyceride level in blood at 5 mg/kg, po for 40 days (reference value: 2.07 +/- 0.33 mmol/l). In kind it is functional.
Data set [5] concerns Oryctolagus cuniculus. Description: Antihyperlipidemic activity in high fat-high cholesterol fed New Zealand Oryctolagus cuniculus (rabbit) assessed as total cholesterol level in blood at 10 mg/kg, po for 40 days (reference value: 8.74 +/- 0.53 mmol/l). In kind it is functional.
The subject of data set [6] is Oryctolagus cuniculus. In words: Antihyperlipidemic activity in high fat-high cholesterol fed New Zealand Oryctolagus cuniculus (rabbit) assessed as total cholesterol level in blood at 5 mg/kg, po for 40 days (reference value: 8.74 +/- 0.53 mmol/l). In kind it is functional.
Data set [7] relates to Oryctolagus cuniculus. Description: Antihyperlipidemic activity in high fat-high cholesterol fed New Zealand Oryctolagus cuniculus (rabbit) assessed as total cholesterol level in blood at 15 mg/kg, po for 40 days (reference value: 8.89 +/- 0.53 mmol/l). The data set is classed as functional.
Data set [8] can be described thus: Toxicity in Mus musculus Kunming (mouse). The data set is classed as organism-based. As to conditions: in vivo.
The test system of data set [9] is Oryctolagus cuniculus. Description: Toxicity in hyperlipidemic New Zealand Oryctolagus cuniculus (rabbit) assessed as histopathological examination of liver at 5 to 15 mg/kg/day, po for 2 months by hematoxylin-eosin staining analysis. The data set is classed as organism-based. Details: route oral. As to conditions: in vivo.
In data set [10] the test system is Oryctolagus cuniculus. In words: Toxicity in hyperlipidemic New Zealand Oryctolagus cuniculus (rabbit) assessed as histopathological examination of heart at 5 to 15 mg/kg/day, po for 2 months by hematoxylin-eosin staining analysis. The data set is classed as organism-based. More on the design: route oral. To be noted: in vivo.
Data set [11] deals with Oryctolagus cuniculus. Description: Toxicity in hyperlipidemic New Zealand Oryctolagus cuniculus (rabbit) assessed as effect on spleen coefficient at 5 to 15 mg/kg/day, po for 2 months. Details: route oral. The data set is classed as organism-based. To be noted: in vivo.
The test system of data set [12] is Oryctolagus cuniculus. Description: Toxicity in high fat-high cholesterol fed New Zealand Oryctolagus cuniculus (rabbit) assessed as mortality at 15 mg/kg, po for 40 days. In kind it is organism-based. Details: dose 15 mg/kg, route oral. As to conditions: in vivo, 960 h.
For data set [13], the system named is Oryctolagus cuniculus. In words: Antihyperlipidemic activity in high fat-high cholesterol fed New Zealand Oryctolagus cuniculus (rabbit) assessed as high-density lipoprotein-cholesterol level in blood at 10 mg/kg, po for 40 days (reference value: 0.69 +/- 0.02 mmol/l). The data set is classed as functional.
The subject of data set [14] is Oryctolagus cuniculus. In words: Toxicity in hyperlipidemic New Zealand Oryctolagus cuniculus (rabbit) assessed as effect on kidney coefficient at 5 to 15 mg/kg/day, po for 2 months. In kind it is organism-based. More on the design: route oral. As to conditions: in vivo.
Data set [15] concerns Oryctolagus cuniculus. Description: Toxicity in hyperlipidemic New Zealand Oryctolagus cuniculus (rabbit) assessed as effect on heart coefficient at 5 to 15 mg/kg/day, po for 2 months. The data set is classed as organism-based. More on the design: route oral. To be noted: in vivo.
In data set [16] the test system is Oryctolagus cuniculus. Description: Toxicity in hyperlipidemic New Zealand Oryctolagus cuniculus (rabbit) assessed as total bilirubin level at 10 mg/kg/day, po for 2 months (reference value: 28.45 +/- 11.55 Umol/l). In kind it is organism-based. More on the design: route oral. To be noted: in vivo.
The subject of data set [17] is Oryctolagus cuniculus. Description: Toxicity in hyperlipidemic New Zealand Oryctolagus cuniculus (rabbit) assessed as alanine aminotransferase level at 15 mg/kg/day, po for 2 months (reference value: 92.14 +/- 14.3 U/l). In kind it is organism-based. More on the design: route oral. As to conditions: in vivo.
In data set [18] the test system is Oryctolagus cuniculus. In words: Toxicity in hyperlipidemic New Zealand Oryctolagus cuniculus (rabbit) assessed as alanine aminotransferase level at 10 mg/kg/day, po for 2 months (reference value: 92.14 +/- 14.3 U/l). To be noted: in vivo. More on the design: route oral. In kind it is organism-based.

Broadly, the LD50 is the dose expected to kill half of the subjects tested. Low readings indicate a more toxic substance, high ones a less toxic substance.

Consider `CCCCCCCCCCCCCCCCc1c2c(OC)c(OC)ccc2cc2[n+]1CCc1cc3c(cc1-2)OCO3.[Cl-]` [8-HEXADECYL-BERBERINE CHLORIDE], for which the Activity turned out to be 2.05e+06 nmol/L in the data set with Oryctolagus cuniculus [1]; 2.46e+06 nmol/L in the data set on Oryctolagus cuniculus [2]; 1.89e+06 nmol/L in the data set on Oryctolagus cuniculus [3]; 1.95e+06 nmol/L with Oryctolagus cuniculus [4]; 4.26e+06 nmol/L in the data set with Oryctolagus cuniculus [5]; 6.92e+06 nmol/L in the data set on Oryctolagus cuniculus [6]. Besides, the Activity is 2.22e+06 nmol/L in the data set with Oryctolagus cuniculus [7]; “Non-toxic” in the data set with Oryctolagus cuniculus [9]; “Non-toxic” in the data set on Oryctolagus cuniculus [10]; “Non-toxic” in the data set on Oryctolagus cuniculus [11]; “Non-toxic” in the data set with Oryctolagus cuniculus [12]; 720000 nmol/L in the data set with Oryctolagus cuniculus [13]. Moreover, the Activity result was “Non-toxic” in the data set with Oryctolagus cuniculus [14]; “Non-toxic” in the data set with Oryctolagus cuniculus [15]; 13.3 µmol/L with Oryctolagus cuniculus [16]; 64.63 U/L in the data set with Oryctolagus cuniculus [17]; 71.53 U/L in the data set with Oryctolagus cuniculus [18]. The 50% lethal dose (LD50) in data set [8] is > 1000 mg/kg.

The record behind these values is ChEMBL document CHEMBL3046105, “Synthesis and antihyperlipidemic efficiency of berberine-based HMG-CoA reductase inhibitor” (Med Chem Res, 2012).
